# Measurements from patent US20260274814A1, “THIENYL COMPOUNDS FOR THE TREATMENT OF A CENTRAL NERVOUS SYSTEM DISEASE OR DISORDER” (Coreterra Therapeutics, Inc., priority 2023, published 2026).
# Structures can show the parent of a compound that is named as a salt.
# System: mice
# Test: Neuropharmacological Assay (SmartCube): automated behavioral signature of compound-treated mice compared with a database of reference drug classes
# Type: in vivo
# Details: for minimal effective dose: Mus musculus, ip, dose having 45% or more total activity in SmartCube, i.p., if only one dose was tested, that dose is shown, read-out: MED (minimal effective dose); for AD / AG / AN / AP / AX / CE / HL / MS / PS / SH / UK: probability that activity matches this class of agents, 3.0 mg/kg i.p., 15 min before test
# Outline: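 Mice dosed i.p. 15 min before SmartCube testing, with compound in N-methyl-2-pyrrolidone/polyethylene glycol/propylene glycol. Video-captured behaviour is compared with a reference-drug signature database to give per-class probabilities, reported at 3.0 mg/kg. MED, from doses usually 0.3–10 mg/kg, is the lowest dose giving ≥45% total activity.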
Compound,minimal effective dose,AD,AG,AN,AP,AX,CE,HL,MS,PS,SH,UK
"CNC1CC=Cc2ccsc2C1.Cl (stereo not drawn) [Compound 24, N-methyl-7,8-dihydro-6H-cyclohepta[b]thiophen-7-amine hydrochloride]",3 mg/kg,ND (^ <4%),ND (^ <4%),ND (^ <4%),ND (^ <4%),ND (^ <4%),ND (^ <4%),ND (^ <4%),ND (^ <4%),ND (^ <4%),+++ (≥49%),ND (^ <4%)
"CNC1CCc2sc(F)cc2C1 (stereo not drawn) [Compound 82, 2-fluoro-N-methyl-4,5,6,7-tetrahydrobenzothiophen-5-amine hydrochloride]",3 mg/kg,++ (≥24%),ND (^ <4%),ND (^ <4%),+ (≥4%),ND (^ <4%),ND (^ <4%),ND (^ <4%),ND (^ <4%),ND (^ <4%),ND (^ <4%),++ (≥24%)
"CNC1COc2csc(Cl)c2C1 (stereo not drawn) [Compound 87, 5-chloro-N-methyl-3,4-dihydro-2H-thieno[3,4-b]pyran-3-amine hydrochloride]",3 mg/kg,ND (^ <4%),ND (^ <4%),ND (^ <4%),+++ (≥49%),ND (^ <4%),ND (^ <4%),ND (^ <4%),ND (^ <4%),ND (^ <4%),ND (^ <4%),ND (^ <4%)
"CNC1COc2csc(C)c2C1 (stereo not drawn) [Compound 88, N, 5-dimethyl-3,4-dihydro-2H-thieno[3,4-b]pyran-3-amine hydrochloride]",3 mg/kg,ND (^ <4%),ND (^ <4%),ND (^ <4%),++++ (≥74%),ND (^ <4%),ND (^ <4%),ND (^ <4%),ND (^ <4%),ND (^ <4%),ND (^ <4%),ND (^ <4%)
"NC1CCc2csc(Cl)c2C1 (stereo not drawn) [Compound 89, 3-chloro-4,5,6,7-tetrahydro-2-benzothiophen-5-amine hydrochloride]",3 mg/kg,ND (^ <4%),ND (^ <4%),ND (^ <4%),ND (^ <4%),+ (≥4%),ND (^ <4%),ND (^ <4%),++ (≥24%),ND (^ <4%),ND (^ <4%),ND (^ <4%)
"CNC1CCc2scc(Cl)c2C1 (stereo not drawn) [Compound 90, 3-chloro-N-methyl-4,5,6,7-tetrahydrobenzothiophen-5-amine hydrochloride]",3 mg/kg,ND (^ <4%),ND (^ <4%),ND (^ <4%),+++ (≥49%),ND (^ <4%),ND (^ <4%),ND (^ <4%),ND (^ <4%),ND (^ <4%),ND (^ <4%),ND (^ <4%)
"CNC1CCc2c(sc(C(F)(F)F)c2C)C1 (stereo not drawn) [Compound 91, N, 3-dimethyl-2-(trifluoromethyl)-4,5,6,7-tetrahydrobenzothiophen-6-amine hydrochloride]",> 3 mg/kg,ND (^ <4%),ND (^ <4%),ND (^ <4%),ND (^ <4%),ND (^ <4%),ND (^ <4%),ND (^ <4%),ND (^ <4%),ND (^ <4%),ND (^ <4%),++ (≥24%)
"CNC1CCc2c(sc(Cl)c2C)C1 (stereo not drawn) [Compound 92, 2-chloro-N, 3-dimethyl-4,5,6,7-tetrahydrobenzothiophen-6-amine hydrochloride]",3 mg/kg,++++ (≥74%),ND (^ <4%),ND (^ <4%),ND (^ <4%),ND (^ <4%),ND (^ <4%),ND (^ <4%),ND (^ <4%),ND (^ <4%),ND (^ <4%),ND (^ <4%)
"CNC1CCc2csc(C#N)c2C1 (stereo not drawn) [Compound 93, 6-(methylamino)-4,5,6,7-tetrahydro-2-benzothiophene-1-carbonitrile hydrochloride]",0.1 mg/kg,ND (^ <4%),ND (^ <4%),ND (^ <4%),++++ (≥74%),ND (^ <4%),ND (^ <4%),ND (^ <4%),ND (^ <4%),ND (^ <4%),ND (^ <4%),ND (^ <4%)
"CNC1CCc2c(Cl)csc2C1 (stereo not drawn) [Compound 94, 3-chloro-N-methyl-4,5,6,7-tetrahydrobenzothiophen-6-amine hydrochloride]",3 mg/kg,ND (^ <4%),ND (^ <4%),ND (^ <4%),++++ (≥74%),ND (^ <4%),ND (^ <4%),ND (^ <4%),ND (^ <4%),ND (^ <4%),ND (^ <4%),ND (^ <4%)
"CNC1CCc2csc(C3CC3)c2C1 (stereo not drawn) [Compound 95, 3-cyclopropyl-N-methyl-4,5,6,7-tetrahydro-2-benzothiophen-5-amine hydrochloride]",1 mg/kg,+++ (≥49%),ND (^ <4%),ND (^ <4%),++ (≥24%),ND (^ <4%),ND (^ <4%),ND (^ <4%),ND (^ <4%),ND (^ <4%),ND (^ <4%),ND (^ <4%)
"CNC1CCc2cc(Cl)sc2C1 (stereo not drawn) [Compound 96, 2-chloro-N-methyl-4,5,6,7-tetrahydrobenzothiophen-6-amine hydrochloride]",3 mg/kg,ND (^ <4%),ND (^ <4%),ND (^ <4%),+++ (≥49%),ND (^ <4%),ND (^ <4%),ND (^ <4%),ND (^ <4%),ND (^ <4%),ND (^ <4%),ND (^ <4%)
"CNC1CCc2sc(Cl)cc2C1 (stereo not drawn) [Compound 97, 2-chloro-N-methyl-4,5,6,7-tetrahydrobenzothiophen-5-amine hydrochloride]",1 mg/kg,++++ (≥74%),ND (^ <4%),ND (^ <4%),ND (^ <4%),ND (^ <4%),ND (^ <4%),ND (^ <4%),ND (^ <4%),ND (^ <4%),ND (^ <4%),ND (^ <4%)
